Results from paper PMC7356696, “Synthesis, Antimicrobial Activity and Molecular Docking of Novel Thiourea Derivatives Tagged with Thiadiazole, Imidazole and Triazine Moieties as Potential DNA Gyrase and Topoisomerase IV Inhibitors” (Molecules, 2020).
Converted amounts (≈) assume the structure as drawn. Read-outs that look alike come from different tables or passages of the source.

What was measured:
Assay type in all cases: cell-based
[1] = system: Bacillus subtilis ATCC 6633; assay: Agar well diffusion, inhibition zone; parameters: dose or concentration left out as unconfirmed; conditions: ATCC6633, B. subtilis ATCC 6633, NA = No Activity, read-out: Mean Diameter of Inhibition Zone (Mean ± SEM)
Text: (§1) The antimicrobial activity of all synthesized compounds 2–13 was screened against a panel of two Gram-positive bacteria (Staphylococcus aureus ATCC 29213 and Bacillus subtilis ATCC 6633), two Gram-negative bacteria (Escherichia coli ATCC 25922, Pseudomonas aeruginosa ATCC 27853) and two fungi (Candida albicans ATCC 10231 and Aspergillus flavus ATCC 46283) using the agar well diffusion method. Ciprofloxacin and clotrimazole were used as antibacterial and antifungal standards, respectively. The results of this study were recorded as the average diameter of the inhibition zones (IZ) in Table 1. […] Additionally, the promising activity against S. aureus was observed from compounds 9, 12 and 13, however against B. subtilis from compounds 12 and 13.
(§2) The antimicrobial assay was performed in vitro for the target compounds 2–13 against Staphylococcus aureus ATCC 29213, Bacillus subtilis ATCC 6633 as Gram-positive bacteria, Escherichia coli ATCC 25922, Pseudomonas aeruginosa ATCC 27853 as Gram-negative bacteria and Candida albicans ATCC 10231, Aspergillus flavus ATCC 46283 as fungi. At the first, 100 μL of the test bacteria/fungi were grown in 10 mL of fresh media until they reached a count of approximately 10^8 cells/ml for bacteria or 10^5 cells/mL for fungi. […] The plates were incubated for 24 h at 37 °C (for bacteria and yeast) and for 72 h at 27 °C (for filamentous fungi), each test was repeated three times. After incubation, the microorganism’s growth was observed. Ciprofloxacin and clotrimazole were used as standard antibacterial and antifungal drugs, respectively. The resulting inhibition zone diameters were measured in millimeters using the diffusion technique. […] The different concentrations (triplicate) of each compound were tested and compared with standard drugs.

[2] = system: Staphylococcus aureus ATCC 29213; assay: Agar well diffusion, inhibition zone; parameters: dose or concentration left out as unconfirmed; conditions: ATCC29213, S. aureus ATCC 29213, NA = No Activity, read-out: Mean Diameter of Inhibition Zone (Mean ± SEM)
Text: as §1, §2

[3] = system: Escherichia coli ATCC 25922; assay: Agar well diffusion, inhibition zone; parameters: dose or concentration left out as unconfirmed; conditions: ATCC25922, E. coli ATCC 25922, NA = No Activity, read-out: Mean Diameter of Inhibition Zone (Mean ± SEM)
Text: as §1
(§3) The antimicrobial assay was performed in vitro for the target compounds 2–13 against Staphylococcus aureus ATCC 29213, Bacillus subtilis ATCC 6633 as Gram-positive bacteria, Escherichia coli ATCC 25922, Pseudomonas aeruginosa ATCC 27853 as Gram-negative bacteria and Candida albicans ATCC 10231, Aspergillus flavus ATCC 46283 as fungi. At the first, 100 μL of the test bacteria/fungi were grown in 10 mL of fresh media until they reached a count of approximately 10^8 cells/ml for bacteria or 10^5 cells/mL for fungi. […] of each sample (at 0.5 mg/mL) was added to each well (10 mm diameter holes cut in the agar gel). The plates were incubated for 24 h at 37 °C (for bacteria and yeast) and for 72 h at 27 °C (for filamentous fungi), each test was repeated three times. After incubation, the microorganism’s growth was observed. Ciprofloxacin and clotrimazole were used as standard antibacterial and antifungal drugs, respectively. The resulting inhibition zone diameters were measured in millimeters using the diffusion technique. […] The different concentrations (triplicate) of each compound were tested and compared with standard drugs.

[4] = system: Pseudomonas aeruginosa ATCC 27853; assay: Agar well diffusion, inhibition zone; parameters: dose or concentration left out as unconfirmed; conditions: ATCC27853, P. aeruginosa ATCC 27853, NA = No Activity, read-out: Mean Diameter of Inhibition Zone (Mean ± SEM)
Text: as §1, §3

[5] = system: Bacillus subtilis ATCC 6633; assay: MIC, modified agar well diffusion method; conditions: ATCC6633, B. subtilis ATCC 6633, read-out: MIC (Mean ± SEM)
Text: as §1, §3

[6] = system: Escherichia coli ATCC 25922; assay: MIC, modified agar well diffusion method; conditions: ATCC25922, E. coli ATCC 25922, read-out: MIC (Mean ± SEM)
Text: as §1, §3

[7] = system: Pseudomonas aeruginosa ATCC 27853; assay: MIC, modified agar well diffusion method; conditions: ATCC27853, P. aeruginosa ATCC 27853, read-out: MIC (Mean ± SEM)
Text: as §1, §3

[8] = system: Staphylococcus aureus ATCC 29213; assay: MIC, modified agar well diffusion method; conditions: ATCC29213, S. aureus ATCC 29213, read-out: MIC (Mean ± SEM)
Text: as §1, §3

[9] = system: Aspergillus flavus ATCC 46283; assay: Agar well diffusion, inhibition zone; parameters: dose or concentration left out as unconfirmed; conditions: ATCC46283, A. flavus ATCC 46283, NA = No Activity, read-out: Mean Diameter of Inhibition Zone (Mean ± SEM)
Text: as §1, §3

[10] = system: Candida albicans ATCC 10231; assay: Agar well diffusion, inhibition zone; parameters: dose or concentration left out as unconfirmed; conditions: ATCC10231, C. albicans ATCC 10231, NA = No Activity, read-out: Mean Diameter of Inhibition Zone (Mean ± SEM)
Text: as §1, §3

[11] = system: Aspergillus flavus ATCC 46283; assay: MIC, modified agar well diffusion method; conditions: ATCC46283, A. flavus ATCC 46283, read-out: MIC (Mean ± SEM)
Text: as §1, §3

[12] = system: Candida albicans ATCC 10231; assay: MIC, modified agar well diffusion method; conditions: ATCC10231, C. albicans ATCC 10231, read-out: MIC (Mean ± SEM)
Text: as §1, §3

[13] = MTT assay for cytotoxic activity; conditions: African green monkey, Vero cells (normal kidney epithelial cell line), read-out: IC50 (Mean ± SEM), cytotoxic activity
Text: (§4) The results are expressed as IC50 values (µM) and are depicted in Table 3.

[14] = system: human breast cancer (MCF-7) cells; assay: MTT assay for cytotoxic activity; conditions: read-out: IC50 (Mean ± SEM), cytotoxic activity
Text: as §4

[15] = Homo sapiens, MCF7, MCF-7 cells

| MIC [5] | MIC [6] | MIC [7] | MIC [8] | MIC [11] | MIC [12] | SMILES | zone of inhibition [1] | zone of inhibition [2] | zone of inhibition [3] | zone of inhibition [4] | zone of inhibition [9] | zone of inhibition [10] | IC50 [13] | IC50 [14, 15] | IC50 ([14]; MCF-7 cells) |
| --- | --- | --- | --- | --- | --- | --- | --- | --- | --- | --- | --- | --- | --- | --- | --- |
| 1.39 ± 0.5 µg/mL (≈ 3.03 µM) | 4.22 ± 0.12 µg/mL (≈ 9.2 µM) | 2.81 ± 0.01 µg/mL (≈ 6.13 µM) | 4.15 ± 0.22 µg/mL (≈ 9.05 µM) | 5.21 ± 0.11 µg/mL (≈ 11.4 µM) | 64 ± 0.41 µg/mL (≈ 140 µM) | O=C(Cc1ccccc1)NC(=S)NNC(=O)C(=Cc1ccccc1)NC(=O)c1ccccc1 [Compound 7a, 1-(2-Benzamido-3-phenylacryloyl)-4-phenylacetylthiosemicarbazide] | 33 ± 0.5 mm | 30 ± 0.22 mm | 18 ± 0.22 mm | 27 ± 0.03 mm | 24 ± 0.02 mm | 15 ± 0.3 mm | 149.1 ± 0.21 µM | 10.2 ± 0.65 µM |  |
| 1.46 ± 0.1 µg/mL (≈ 3.14 µM) | 4.68 ± 0.13 µg/mL (≈ 10.1 µM) | 2.72 ± 0.15 µg/mL (≈ 5.85 µM) | 3.9 ± 0.26 µg/mL (≈ 8.39 µM) | 5.7 ± 0.01 µg/mL (≈ 12.3 µM) | 76 ± 0.31 µg/mL (≈ 164 µM) | O=C(Cc1ccccc1)NC(=S)NNC(=O)C(=Cc1cccs1)NC(=O)c1ccccc1 [Compound 7b, 1-(2-Benzamido-3-(thiophen-2-yl)acryloyl)-4-phenylacetylthiosemicarbazide] | 35 ± 0.26 mm | 33 ± 0.01 mm | 18 ± 0.41 mm | 26 ± 0.21 mm | 25 ± 0.15 mm | 16 ± 0.12 mm | 133.3 ± 0.4 µM | 11.6 ± 0.59 µM | 11.6 ± 0.59 µM |

The next lines start with the compound.

| SMILES | MIC [5] | MIC [6] | MIC [7] | MIC [8] | MIC [11] | MIC [12] | zone of inhibition [1] | zone of inhibition [2] | zone of inhibition [3] | zone of inhibition [4] | zone of inhibition [9] | zone of inhibition [10] | IC50 [13] | IC50 [14, 15] | IC50 ([14]; MCF-7 cells) |
| --- | --- | --- | --- | --- | --- | --- | --- | --- | --- | --- | --- | --- | --- | --- | --- |
| O=C(O)c1cn(C2CC2)c2cc(N3CCNCC3)c(F)cc2c1=O [Ciprofloxacin, reference compound] | 2.9 ± 0.02 µg/mL (≈ 8.75 µM) | 2.9 ± 0.25 µg/mL (≈ 8.75 µM) | 2.9 ± 0.04 µg/mL (≈ 8.75 µM) | 5.85 ± 0.13 µg/mL (≈ 17.7 µM) |  |  | 23 ± 0.2 mm | 24 ± 0.6 mm | 26 ± 0.25 mm | 23 ± 0.9 mm |  |  |  |  |  |
| Clc1ccccc1C(c1ccccc1)(c1ccccc1)n1ccnc1 [Clotrimazole, reference compound] |  |  |  |  | 4.25 ± 0.05 µg/mL (≈ 12.3 µM) | 12.5 ± 0.15 µg/mL (≈ 36.2 µM) |  |  |  |  | 25 ± 0.4 mm | 27 ± 0.21 mm |  |  |  |
| CCOC(=O)CNC(=S)NC(=O)Cc1ccccc1 [Compound 2, Ethyl ((2-phenylacetyl)carbonothionyl)glycinate] |  |  |  |  |  |  |  | 9 ± 0.61 mm |  |  |  |  |  |  |  |
| O=C(Cc1ccccc1)NC(=S)NN1C(=O)C(=Cc2ccccc2)N=C1c1ccccc1 [Compound 6, 1-(4-Benzylidene-4,5-dihydro-5-oxo-2-phenylimidazol-1-yl)-3-(2-phenylacetyl)thiourea] | 2.29 ± 0.05 µg/mL (≈ 5.2 µM) | 7.8 ± 0.1 µg/mL (≈ 17.7 µM) | 2.48 ± 0.11 µg/mL (≈ 5.63 µM) | 5.12 ± 0.05 µg/mL (≈ 11.6 µM) | 26.2 ± 0.03 µg/mL (≈ 59.5 µM) | 91 ± 0.02 µg/mL (≈ 207 µM) | 30 ± 0.26 mm | 27 ± 0.2 mm | 12 ± 0.1 mm | 21 ± 0.26 mm | 9 ± 0.03 mm | 6 ± 0.22 mm | 122.8 ± 0.4 µM | 23.7 ± 0.96 µM |  |
